Measurements as given in PubChem BioAssay (NCI).
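Cultured in 96-well plates, cells were exposed to test compound for 48 hours across five concentrations. The concentration for 50% growth inhibition is given as GI50. TGI denotes the concentration required for complete inhibition of growth.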

Key:
Test in all cases: NCI anticancer screen, dose series, 48 h
SNB-75 CNS = tested on: SNB-75 CNS
LOX IMVI melanoma = tested on: LOX IMVI melanoma
SF-539 CNS = tested on: SF-539 CNS
SW-620 colon = tested on: SW-620 colon
COLO 205 colon = tested on: COLO 205 colon
MDA-MB-435 = tested on: MDA-MB-435
T-47D breast = tested on: T-47D breast
UACC-62 melanoma = tested on: UACC-62 melanoma
HOP-92 NSCLC = tested on: HOP-92 NSCLC

Row | Structure (SMILES) | TGI (SNB-75 CNS) [µM] | TGI (LOX IMVI melanoma) [µM] | TGI (SF-539 CNS) [µM] | TGI (SW-620 colon) [µM] | TGI (COLO 205 colon) [µM] | TGI (MDA-MB-435) [µM] | TGI (T-47D breast) [µM] | TGI (UACC-62 melanoma) [µM] | TGI (HOP-92 NSCLC) [µM] | GI50 (UACC-62 melanoma) [µM]
1 | CC(=O)O[C@@H]1O[Si](C(C)(C)C)(C(C)(C)C)[C@H](C)[C@H]1C | > 100 | > 100 | > 100 | > 100 | > 100 | > 100 | > 100 | > 100 |  | 
2 | COc1ccc(CNC(=O)[C@H](Cc2ccc(O)cn2)NC(C)=O)cc1 |  | > 100 | > 100 | > 100 | > 100 | > 100 | > 100 | > 100 |  | 
3 | O=C(/C=C/c1ccc(O)c(O)c1)NCCc1ccc(-c2ccccc2)cc1 | > 100 |  | > 100 | > 100 | > 100 |  | > 100 |  |  | 
4 | O=C(O)C12C3CCC(O3)C1(C(=O)O)C1CCC2O1 (stereo not given) | > 100 | > 100 | > 100 | > 100 | > 100 | > 100 | > 100 | > 100 |  | 
5 | COc1cc(C23OCC(Cc4cc5c(cc42)OCO5)C3CO)cc(OC)c1OC (stereo not given) | > 100 | 13.2 | 26.2 | > 100 | > 100 |  | > 100 | > 100 | > 100 | 4.27
6 | CC(=O)Oc1c2oc3cc(O)c(O)cc3c2c(OC(C)=O)c2oc3cc(O)c(O)cc3c12 | 57.6 | > 100 | 53.3 | > 100 | 33.5 | 3.81 |  | 40.2 |  | 
7 | COc1ccccc1NC(=S)Nc1cc(C)ccn1 | > 100 | > 100 | > 100 | > 100 | > 100 | > 100 | > 100 | > 100 |  | 
8 | CC1=CC(C)(C)Nc2ccc(CSc3ccccc3)cc21 | 51.3 | 82.3 | > 100 | > 100 | 52.8 | 63.4 |  | > 100 | > 100 | 
9 | N#Cc1c(-c2ccccc2)c(C#N)c(=O)n(C2OC(CO)C(O)C(O)C2O)c1S (stereo not given) | > 100 | > 100 | > 100 | > 100 |  | > 100 | > 100 | > 100 |  | 
10 | O=C(Nc1nc(C23CC4CC(CC(C4)C2)C3)cs1)c1cc2c(ccc3ccccc32)oc1=O |  | > 100 | > 100 | > 100 | > 100 | > 100 |  |  | > 100 | 
11 | BrCC(Br)(c1ccccc1)c1ccccc1-c1cc(-c2ccccc2)cc(-c2ccccc2)n1 (stereo not given) | 4.08 | 5.88 | 19 | 14.2 | 2.81 | 4.63 |  |  | 11.4 | 
12 | CN(C)CCCNC(=O)c1cc(NC(=O)c2cc(NC(=O)[C@@H]3C[C@H]3C(=O)Nc3cc(C(=O)Nc4cc(C(=O)NCCCN(C)C)n(C)c4)n(C)c3)cn2C)cn1C | > 100 | > 100 | > 100 | > 100 | > 100 | > 100 |  |  | > 100 | 
13 | NC(N)=NC(N)=Nc1ccccc1 (tested in a mixture with another compound) | > 100 | > 100 | > 100 | > 100 | > 100 | > 100 | 81.4 | > 100 |  | 
14 | Cn1c(=O)oc2cc(Br)ccc21 | > 100 | > 100 | > 100 | > 100 | > 100 | > 100 | > 100 | > 100 |  | 
15 | C[N+](C)([O-])Cc1cc(-c2ccccc2)ccc1O | > 100 | > 100 |  | > 100 |  | > 100 | > 100 | > 100 | > 100 | 
16 | Cc1ccc(C)n1-n1c(-c2ccccc2)n[nH]c1=O | > 100 | > 100 |  | > 100 | > 100 | 53.6 | > 100 | > 100 |  | 
17 | O=[As](O)(O)c1ccc2nc3cc([As](=O)(O)O)ccc3nc2c1 | > 100 | > 100 |  | > 100 |  | > 100 | > 100 | > 100 | > 100 | 
18 | CCN(CC)CCNc1ccc(C)c2sc3ccccc3c(=O)c12 | 7.68 | 3.26 | 8.04 | 4.35 | 4.23 | 4.49 | 19.4 | 3.68 |  | 
19 | O=C(NNC(=S)NCc1ccccc1)C12CC3CC(CC(C3)C1)C2 | > 100 | > 100 | > 100 | > 100 | 44.1 | > 100 | > 100 | > 100 |  | 
